Test results as given in article PMC6273621, “Synthesis and the Biological Activity of Phosphonylated 1,2,3-Triazolenaphthalimide Conjugates” (Molecules, 2016).
Like-named read-outs stand apart in the source and are kept apart here.

What was measured:
HEL cells = assay: Cytotoxicity, cell morphology (MCC) in HEL cells; assay type: cell-based, human; conditions: minimum cytotoxic concentration causing microscopically detectable alteration of cell morphology
Description: The cytotoxicity of the tested compounds toward the uninfected host cells was defined as the minimum cytotoxic concentration (MCC) that causes a microscopically detectable alteration of normal cell morphology.

[1] = test system: human T-lymphocyte (CEM) cells; assay: Cytostatic activity, CEM cell proliferation; assay type: cell-based; conditions: CCRF-CEM, 72 h, read-out: IC50 CEM
Description: (§1) All assays were performed in 96-well microtiter plates. To each well were added (5–7.5) × 10^4 tumor cells and a given amount of the test compound. The cells were allowed to proliferate for 48 h (murine leukemia L1210 cells) or 72 h (human lymphocytic CEM and human cervix carcinoma HeLa cells) at 37 °C in a humidified CO2-controlled atmosphere. At the end of the incubation period, the cells were counted in a Coulter counter.

[2] = test system: murine leukemia (L1210) cells; assay: Cytostatic activity, L1210 cell proliferation; assay type: cell-based; conditions: Mus musculus, read-out: IC50 L1210
Description: as §1

TK− VZV strain = assay: microbe, parasite or virus in culture; assay type: cell-based, varicella-zoster virus (VZV) strain 07−1; conditions: Human alphaherpesvirus 3, HEL, read-out: Antiviral Activity EC50, TK− VZV Strain, HEL cell cultures; concentration reducing virus plaque formation by 50%
[3] = test system: human dermal microvascular endothelial HMEC-1 cells; assay: Cytostatic activity, HMEC-1 cell proliferation; assay type: cell-based
[4] = test system: human cervix carcinoma cells (HeLa); assay: Cytostatic activity, HeLa cell proliferation; assay type: cell-based; conditions: 72 h, read-out: IC50 HeLa
Description: as §1

TK+ VZV strain = assay: microbe, parasite or virus in culture; assay type: cell-based, varicella-zoster virus (VZV) strain Oka; conditions: for EC50: Human alphaherpesvirus 3, HEL, read-out: Antiviral Activity EC50, TK+ VZV Strain, HEL cell cultures, concentration reducing virus plaque formation by 50%

| SMILES | Cytotoxicity, Cell Morphology (MCC) (HEL cells) [μM] | IC50 ([1]; cell proliferation) [µM] | IC50 ([2]; L1210, cell proliferation, 48 h) [µM] | EC50 (TK− VZV strain) [µM] | IC50 ([3]; HMEC-1, cell proliferation, read-out: IC50 HMEC-1) [µM] | IC50 ([4]; cell proliferation) [µM] | EC50 (TK+ VZV strain) [µM] | melting point [°C] | IC50 [1] [µM] | IC50 ([2]; L1210, 48 h) [µM] | IC50 ([3]; HMEC-1, read-out: IC50 HMEC-1) [µM] | IC50 [4] [µM] | Potency toward the TK+ VZV strain (in words) (TK+ VZV strain; HEL cell cultures) |
| --- | --- | --- | --- | --- | --- | --- | --- | --- | --- | --- | --- | --- | --- |
| CN(C)CCN1C(=O)c2cccc3cc(N)cc(c23)C1=O [Amonafide, reference compound] | 20 | 0.54 ± 0.5 | 1 ± 0.4 | 7.82 | 0.31 | 2 ± 1.2 | 5.36 | – | – | – | – | – | – |
| CCOP(=O)(CCCn1cc(CN2C(=O)c3cccc4cccc(c34)C2=O)nn1)OCC [Compound 14c, Diethyl 3-{4-[(1,3-Dioxo-1H-benzo[de]isoquinolin-2(3H)-yl)methyl]-1H-1,2,3-triazol-1-yl}propylphosphonate] | >100 | – | – | 64.5 | – | – | > 100 | 131 to 132 | 124 ± 19 | ≥ 250 | ≥ 250 | 172 ± 20 | – |
| CCOP(=O)(CCCCn1cc(CN2C(=O)c3cccc4cccc(c34)C2=O)nn1)OCC [Compound 14d, Diethyl 4-{4-[(1,3-Dioxo-1H-benzo[de]isoquinolin-2(3H)-yl)methyl]-1H-1,2,3-triazol-1-yl}butylphosphonate] | >100 | – | – | 56.7 | – | – | 86.4 | 131 to 132 | 119 ± 3 | 156 ± 40 | 180 ± 54 | 150 ± 11 | – |
| CCOP(=O)(OCC)C(O)Cn1cc(CN2C(=O)c3cccc4cccc(c34)C2=O)nn1 (stereo not drawn) [Compound 14e, Diethyl 2-{4-[(1,3-Dioxo-1H-benzo[de]isoquinolin-2(3H)-yl)methyl]-1H-1,2,3-triazol-1-yl}-1-hydroxyethylphosphonate] | >100 | – | – | > 100 | – | – | 69.9 | 186 to 188 | > 250 | > 250 | ≥ 250 | ≥ 250 | – |
| CCOP(=O)(CCOCCn1cc(CN2C(=O)c3cccc4cccc(c34)C2=O)nn1)OCC [Compound 14h, Diethyl 2-(2-{4-[(1,3-Dioxo-1H-benzo[de]isoquinolin-2(3H)-yl)methyl]-1H-1,2,3-triazol-1-yl}ethoxy)ethylphosphonate] | >100 | – | – | 74.6 | – | – | > 100 | 156 to 158 | 171 ± 25 | 196 ± 32 | 222 ± 39 | 154 ± 22 | – |
| CCOP(=O)(CCn1cc(CN2C(=O)c3cccc4c(Br)ccc(c34)C2=O)nn1)OCC [Compound 15b] | >100 | – | – | 38.1 | – | – | 34.2 | 132 to 134 | 56 ± 20 | 14 ± 1 | 152 ± 1 | 62 ± 20 | – |
| CCOP(=O)(CCCCn1cc(CN2C(=O)c3cccc4c(Br)ccc(c34)C2=O)nn1)OCC [Compound 15d, Diethyl 4-{4-[(6-Bromo-1,3-dioxo-1H-benzo[de]isoquinolin-2(3H)-yl)methyl]-1H-1,2,3-triazol-1-yl}butylphosphonate] | 100 | – | – | 37.5 | – | – | 40.4 | – | 22 | 17 ± 3 | 92 ± 43 | 55 ± 2 | – |
| CCOP(=O)(CC(O)Cn1cc(CN2C(=O)c3cccc4c(Br)ccc(c34)C2=O)nn1)OCC (stereo not drawn) [Compound 15f, Diethyl 3-{4-[(6-Bromo-1,3-dioxo-1H-benzo[de]isoquinolin-2(3H)-yl)methyl]-1H-1,2,3-triazol-1-yl}-2-hydroxypropylphosphonate] | >100 | – | – | > 100 | – | – | 86.4 | 152 to 153 | 60 ± 13 | 23 ± 3 | 152 ± 1 | 87 ± 21 | – |
| CCOP(=O)(CCOCCn1cc(CN2C(=O)c3cccc4c(Br)ccc(c34)C2=O)nn1)OCC [Compound 15h, Diethyl 2-(2-{4-[(6-Bromo-1,3-dioxo-1H-benzo[de]isoquinolin-2(3H)-yl)methyl]-1H-1,2,3-triazol-1-yl}ethoxy)ethylphosphonate] | >100 | – | – | 70.8 | – | – | 37.1 | 92 to 93 | 29 ± 11 | 26 ± 2 | 151 | 61 ± 15 | – |
| CCOP(=O)(CNC(=O)Cn1cc(CN2C(=O)c3cccc4c(Br)ccc(c34)C2=O)nn1)OCC [Compound 15i, Diethyl 2-{4-[(6-Bromo-1,3-dioxo-1H-benzo[de]isoquinolin-2(3H)-yl)methyl]-1H-1,2,3-triazol-1-yl}acetamido-methylphosphonate] | – | – | – | – | – | – | – | 173 to 174 | 137 ± 72 | 31 ± 2 | > 250 | > 250 | – |
| CCOP(=O)(Cn1cc(CN2C(=O)c3cccc4cc([N+](=O)[O-])cc(c34)C2=O)nn1)OCC [Compound 16a, Diethyl {4-[(5-Nitro-1,3-dioxo-1H-benzo[de]isoquinolin-2(3H)-yl)methyl]-1H-1,2,3-triazol-1-yl}methylphosphonate] | >100 | – | – | 64.5 | – | – | 39.1 | 147 to 148 | 69 ± 1 | 66 ± 7 | 154 ± 1 | 44 ± 19 | – |
| CCOP(=O)(CCn1cc(CN2C(=O)c3cccc4cc([N+](=O)[O-])cc(c34)C2=O)nn1)OCC [Compound 16b, Diethyl 2-{4-[(5-Nitro-1,3-dioxo-1H-benzo[de]isoquinolin-2(3H)-yl)methyl]-1H-1,2,3-triazol-1-yl}ethylphosphonate] | 100 | – | – | 27.6 | – | – | > 100 | – | 176 ± 37 | > 250 | 118 ± 71 | 54 ± 21 | no potency |
| CCOP(=O)(CCCn1cc(CN2C(=O)c3cccc4cc([N+](=O)[O-])cc(c34)C2=O)nn1)OCC [Compound 16c, Diethyl 3-{4-[(5-Nitro-1,3-dioxo-1H-benzo[de]isoquinolin-2(3H)-yl)methyl]-1H-1,2,3-triazol-1-yl}propylphosphonate] | >100 | – | – | 47.8 | – | – | 32.8 | 113 to 114 | 55 ± 23 | 34 ± 9 | 136 ± 22 | 29 ± 17 | – |
| CCOP(=O)(CCCCn1cc(CN2C(=O)c3cccc4cc([N+](=O)[O-])cc(c34)C2=O)nn1)OCC [Compound 16d, Diethyl 4-{4-[(5-Nitro-1,3-dioxo-1H-benzo[de]isoquinolin-2(3H)-yl)methyl]-1H-1,2,3-triazol-1-yl}butylphosphonate] | >100 | – | – | 53.9 | – | – | 29.9 | 150 to 151 | 95 ± 4 | 70 ± 52 | 126 ± 37 | 81 ± 4 | – |
| CCOP(=O)(OCC)C(O)Cn1cc(CN2C(=O)c3cccc4cc([N+](=O)[O-])cc(c34)C2=O)nn1 (stereo not drawn) [Compound 16e, Diethyl 2-{4-[(5-Nitro-1,3-dioxo-1H-benzo[de]isoquinolin-2(3H)-yl)methyl]-1H-1,2,3-triazol-1-yl}-1-hydroxyethylphosphonate] | >100 | – | – | > 100 | – | – | 83.6 | 212 to 213 | 127 ± 14 | 111 ± 39 | > 250 | 132 ± 2 | – |
| CCOP(=O)(CC(O)Cn1cc(CN2C(=O)c3cccc4cc([N+](=O)[O-])cc(c34)C2=O)nn1)OCC (stereo not drawn) [Compound 16f, Diethyl 3-{4-[(5-Nitro-1,3-dioxo-1H-benzo[de]isoquinolin-2(3H)-yl)methyl]-1H-1,2,3-triazol-1-yl}-2-hydroxypropylphosphonate] | >100 | – | – | 91.5 | – | – | 56.7 | 176 to 177 | 71 ± 21 | 68 ± 11 | 155 ± 6 | 42 ± 21 | – |
| CCOP(=O)(CCOCCn1cc(CN2C(=O)c3cccc4cc([N+](=O)[O-])cc(c34)C2=O)nn1)OCC [Compound 16h, Diethyl 2-(2-{4-[(5-Nitro-1,3-dioxo-1H-benzo[de]isoquinolin-2(3H)-yl)methyl]-1H-1,2,3-triazol-1-yl}ethoxy)ethylphosphonate] | >100 | – | – | 64.5 | – | – | 40.9 | – | 66 | 64 ± 11 | 152 ± 1 | 56 ± 16 | – |
| CCOP(=O)(CNC(=O)Cn1cc(CN2C(=O)c3cccc4cc([N+](=O)[O-])cc(c34)C2=O)nn1)OCC [Compound 16i, Diethyl 2-{4-[(5-Nitro-1,3-dioxo-1H-benzo[de]isoquinolin-2(3H)-yl)methyl]-1H-1,2,3-triazol-1-yl}acetamido-methylphosphonate] | – | – | – | – | – | – | – | 217 to 219 | > 250 | > 250 | > 250 | 86 ± 6 | – |
